# In ChEMBL document CHEMBL2331223, “Synthesis of 2-aminomethyl-4-phenyl-1-azabicyclo[2.2.1]heptanes via LiAlH₄-induced reductive cyclization of 2-(4-chloro-2-cyano-2-phenylbutyl)aziridines and evaluation of their antimalarial activity” (Bioorg Med Chem Lett, 2013):
# How the values were obtained:
# Plasmodium falciparum [1] = experiment: Resistant index, ratio of IC50 for chloroquine-resistant Plasmodium falciparum Dd2 to IC50 for chloroquine-sensitive Plasmodium falciparum D10; assay type: functional
# CHO = experiment: Cytotoxicity against CHO cells by MTT assay; assay type: cell-based; conditions: Cricetulus griseus
# Plasmodium falciparum [2] = experiment: Antimalarial activity against chloroquine-resistant Plasmodium falciparum Dd2; assay type: functional, organism-based
# Plasmodium falciparum [3] = experiment: Antimalarial activity against chloroquine-sensitive Plasmodium falciparum D10; assay type: functional, organism-based
# [4] = Selectivity index, ratio of IC50 for CHO cells to IC50 for chloroquine-sensitive Plasmodium falciparum D10; assay type: toxicity, cell-based; conditions: hamster, read-out: Ratio IC50
Compound,Ratio IC50 (Plasmodium falciparum [1]),IC50 (CHO),IC50 (Plasmodium falciparum [2]),IC50 (Plasmodium falciparum [3]),selectivity ratio [4]
c1ccc(CNC[C@H]2C[C@@]3(c4ccccc4)CCN2C3)cc1 (relative stereo),4.4,> 300 µM,78.5 µM,18.4 µM,
Cc1ccc(CNC[C@H]2C[C@@]3(c4ccccc4)CCN2C3)cc1 (relative stereo),1.5,163 µM,15.9 µM,10.3 µM,15.7
Clc1ccc(CNC[C@H]2C[C@@]3(c4ccccc4)CCN2C3)cc1 (relative stereo),2,90.4 µM,11.8 µM,6.01 µM,15.1
c1ccc(CNC[C@@H]2C[C@@]3(c4ccccc4)CCN2C3)cc1 (relative stereo),9.6,231 µM,24.2 µM,2.63 µM,91.2
Cc1ccc(CNC[C@@H]2C[C@@]3(c4ccccc4)CCN2C3)cc1 (relative stereo),12.5,160 µM,10 µM,0.81 µM,200
Clc1ccc(CNC[C@@H]2C[C@@]3(c4ccccc4)CCN2C3)cc1 (relative stereo),1.7,71.2 µM,2.4 µM,1.39 µM,51.1
CC[C@H]1CN2CCc3cc(OC)c(OC)cc3[C@@H]2C[C@@H]1C[C@H]1NCCc2cc(OC)c(OC)cc21 [EMETINE],,0.33 µM,,,
